Measured values as given in patent US20130303532A1, “IMIDAZOPYRAZINES FOR USE AS MPS-1 AND TKK INHIBITORS IN THE TREATMENT HYPERPROLIFERATIVE DISORDERS” (BAYER INTELLECTUAL PROPERTY GmbH, priority 2010, published 2013).

Each compound was assayed against T1, human kinase Mps-1 (Homo sapiens, UniProt P33981) (assay: Mps-1 kinase assay (TR-FRET)). Conditions: Mps1 IC50 [nM], N-terminally GST-tagged human full length recombinant Mps-1; 10 μM ATP; 1 μM biotinylated peptide substrate; 60 min at 22° C.
T1 construct: N-terminally GST-tagged human full length recombinant Mps-1 kinase; GST (N); purchased Invitrogen, Karslruhe, Germany PV4071
T1 sequence (P33981 1-857): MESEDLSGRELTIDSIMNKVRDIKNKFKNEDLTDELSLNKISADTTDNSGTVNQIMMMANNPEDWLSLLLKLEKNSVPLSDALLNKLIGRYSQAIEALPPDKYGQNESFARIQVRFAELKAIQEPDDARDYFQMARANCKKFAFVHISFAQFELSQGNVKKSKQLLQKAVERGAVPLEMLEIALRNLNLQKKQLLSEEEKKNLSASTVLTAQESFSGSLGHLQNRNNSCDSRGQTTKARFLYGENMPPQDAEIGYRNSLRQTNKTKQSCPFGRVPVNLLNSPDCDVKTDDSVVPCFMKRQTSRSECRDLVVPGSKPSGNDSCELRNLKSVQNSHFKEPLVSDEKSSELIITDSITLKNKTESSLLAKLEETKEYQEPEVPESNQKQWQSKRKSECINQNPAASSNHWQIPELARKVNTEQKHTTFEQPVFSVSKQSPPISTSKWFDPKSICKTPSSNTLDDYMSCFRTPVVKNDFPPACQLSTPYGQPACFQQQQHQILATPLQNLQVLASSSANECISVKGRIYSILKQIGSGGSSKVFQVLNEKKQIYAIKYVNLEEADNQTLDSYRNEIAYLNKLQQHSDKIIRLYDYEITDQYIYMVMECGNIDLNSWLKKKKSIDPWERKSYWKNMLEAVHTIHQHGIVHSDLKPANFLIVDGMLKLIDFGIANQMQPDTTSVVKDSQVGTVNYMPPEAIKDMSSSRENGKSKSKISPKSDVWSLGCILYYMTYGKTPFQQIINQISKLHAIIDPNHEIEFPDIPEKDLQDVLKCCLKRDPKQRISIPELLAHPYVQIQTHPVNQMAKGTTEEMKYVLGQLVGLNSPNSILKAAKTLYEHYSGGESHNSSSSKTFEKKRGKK
Assay type: biochemical

| Compound | IC50 [nM] |
| --- | --- |
| O=C(NC1CC1)c1ccc(-c2cnc3c(NCc4ccc(F)cc4)nccn23)cc1 [Example 7-31, N-cyclopropyl-4-{8-[(4-fluorobenzyl)amino]imi-dazo[1,2-a]pyrazin-3-yl}benzamide] | 17.4 |
| O=C(NC1CC1)c1ccc(-c2cnc3c(NCCCCO)nccn23)cc1Cl [Example 7-39, 2-chloro-N-cyclopropyl-4-{8-[(4-hydroxybutyl)amino]imi-dazo[1,2-a]pyrazin-3-yl}benzamide] | 239 |
| Cc1cc(-c2cnc3c(NCCCN4CCCC4=O)nccn23)ccc1C(=O)NC1CC1 [Example 7-95, N-cyclopropyl-2-methyl-4-(8-{[3-(2-oxopyrrolidin-1-yl)propyl]amino}imi-dazo[1,2-a]pyrazin-3-yl)benzamide] | 562 |
| Cc1cc(-c2cnc3c(NCc4cccnc4)nccn23)ccc1C(=O)NC1CC1 [Example 7-108, N-cyclopropyl-2-methyl-4-{8-[(pyridin-3-ylmethyl)amino]imi-dazo[1,2-a]pyrazin-3-yl}benzamide] | 123 |
| CC(C)(O)CNc1nccn2c(-c3ccc(C(=O)NC4CC4)c(Cl)c3)cnc12 [Example 7-64, 2-chloro-N-cyclopropyl-4-{8-[(2-hydroxy-2-methylpropyl)amino]imi-dazo[1,2-a]pyrazin-3-yl}benzamide] | 538 |
| O=C(NC1CC1)c1ccc(-c2cnc3c(NCc4ccn[nH]4)nccn23)cc1 [Example 4-4, N-cyclopropyl-4-{8-[(1H-pyrazol-5-ylmethyl)amino]imi-dazo[1,2-a]pyrazin-3-yl}benzamide] | 69.8 |
| COc1cc(C(=O)NC2CC2)ccc1-c1cnc2c(NCC(C)C)nccn12 [Example 7-128, N-cyclopropyl-3-methoxy-4-{8-[(2-methylpropyl)amino]imi-dazo[1,2-a]pyrazin-3-yl}benzamide] | 19.3 |
| CCOC(C)CNc1nccn2c(-c3ccc(C(=O)NC4CC4)c(O)c3)cnc12 (stereo not shown) [Example 7-86, N-cyclopropyl-4-{8-[(2-ethoxypropyl)amino]imi-dazo[1,2-a]pyrazin-3-yl}-2-hydroxybenzamide] | 268 |
| O=C(NC1CC1)c1ccc(-c2cnc3c(NCCc4ccccc4)nccn23)cc1 [Example 7-9, N-cyclopropyl-4-{8-[(2-phenylethyl)amino]imi-dazo[1,2-a]pyrazin-3-yl}benzamide] | 47.7 |
| Cc1cc(-c2cnc3c(NCC(F)(F)F)nccn23)ccc1C(=O)NC1CC1 [Example 7-100] | 217 |
| Cc1cc(-c2cnc3c(NCc4ccccc4Cl)nccn23)ccc1C(=O)NC1CC1 [Example 5-4, 4-{8-[(2-chlorobenzyl)amino]imi-dazo[1,2-a]pyrazin-3-yl}-N-cyclopropyl-2-methylbenzamide] | 18.8 |
| Cc1cc(-c2cnc3c(NCC(C)O)nccn23)ccc1C(=O)NC1CC1 (stereo not shown) [Example 7-115, N-cyclopropyl-4-{8-[(2-hydroxypropyl)amino]imi-dazo[1,2-a]pyrazin-3-yl}-2-methylbenzamide] | 101 |
| COc1cc(CNc2nccn3c(-c4ccc(C(=O)NC5CC5)cc4)cnc23)cc(OC)c1OC [Example 7-13, N-cyclopropyl-4-{8-[(3,4,5-trimethoxybenzyl)amino]imi-dazo[1,2-a]pyrazin-3-yl}benzamide] | 429 |
| O=C(NC1CC1)c1ccc(-c2cnc3c(NCC(O)C(F)(F)F)nccn23)cc1Cl (stereo not shown) [Example 7-55, 2-chloro-N-cyclopropyl-4-{8-[(3,3,3-trifluoro-2-hydroxypropyl)amino]imi-dazo[1,2-a]pyrazin-3-yl}benzamide] | 175 |
| O=C(NC1CC1)c1ccc(-c2cnc3c(NCc4ccco4)nccn23)cc1O [Example 7-79, N-cyclopropyl-4-{8-[(furan-2-ylmethyl)amino]imi-dazo[1,2-a]pyrazin-3-yl}-2-hydroxybenzamide] | 77.3 |

Same assay, conditions: N-terminally GST-tagged human full length recombinant Mps-1; 10 μM ATP; 1 μM biotinylated peptide substrate; 60 min at 22° C.; read-out: Mps1 IC50

| Compound | IC50 [nM] |
| --- | --- |
| CCNc1nccn2c(-c3ccc(C(=O)NC4CC4)c(O)c3)cnc12 [Example 7-77, N-cyclopropyl-4-[8-(ethylamino)imidazo[1,2-a]pyrazin-3-yl]-2-hydroxybenzamide] | 63.1 |
| 2-chloro-N-cyclopropyl-4- {8-[(2- sulfamoylethyl)amino]imi- dazo[1,2-a]pyrazin-3- yl}benzamide [Example 7-67] | 250 |
| O=C(NC1CC1)c1ccc(-c2cnc3c(NCCCO)nccn23)cc1 [Example 3-1, N-cyclopropyl-4-[8-[(3-hydroxypropyl)amino]imidazo[1,2-a]pyrazin-3-yl]benzamide] | 54.5 |
| CS(=O)(=O)CCCNc1nccn2c(-c3ccc(C(=O)NC4CC4)cc3)cnc12 [Example 4-2, N-cyclopropyl-4-(8-{[3-(methylsulfonyl)propyl]amino}imidazo[1,2-a]pyrazin-3-yl)benzamide] | 87.4 |
| Cc1cc(-c2cnc3c(NCc4ccccc4)nccn23)ccc1C(=O)NC1CC1 [Example 7-101, 4-[8-(benzylamino)imidazo[1,2-a]pyrazin-3-yl]-N-cyclopropyl-2-methylbenzamide] | 34.1 |
| O=C(NC1CC1)c1ccc(-c2cnc3c(NCc4ccccc4)nccn23)cc1Cl [Example 7-40, 4-[8-(benzylamino)imidazo[1,2-a]pyrazin-3-yl]-2-chloro-N-cyclopropylbenzamide] | 64.6 |
| Cc1cc(-c2cnc3c(NCC(F)(F)C(F)(F)F)nccn23)ccc1C(=O)NC1CC1 [Example 7-112, N-cyclopropyl-2-methyl-4-{8-[(2,2,3,3,3-pentafluoropropyl)ami-no]imidazo[1,2-a]pyrazin-3-yl}benzamide] | 81.6 |
